The record followed here is patent US20180244660A1, “CYCLOPROPYLDERIVATIVES AND THEIR USE AS KINASE INHIBITORS” (Karyopharm Therapeutics Inc., priority 2015, published 2018).

Assay [1] relates to Z138 cells. The assay can be described thus: MTT cell proliferation assay, Z138 cells. Format: cell-based, human. The conditions noted are these: Homo sapiens, Z-138, incubation approximately 64-72 hours. As to the method:
(§1) The MTT cell proliferation assay was used to study the cytotoxic properties of the compounds. The assay was performed according to the method described by Roche Molecular Biochemicals, with minor modifications. The assay is based on the cleavage of the tetrazolium salt, MTT, in the presence of an electron-coupling reagent. The water-insoluble formazan salt produced must be solubilized in an additional step. Cells grown in a 96-well tissue culture plate were incubated with the MTT solution for approximately 4 hours. After this incubation period, a water-insoluble formazan dye formed. After solubilization, the formazan dye was quantitated using a scanning multi-well spectrophotometer (ELISA reader). […] The cells were seeded at 5,000-10,000 cells in each well of 96-well plate in 100 μL of fresh culture medium and were allowed to attach overnight. The stock solutions of the compounds were diluted in 100 μL cell culture medium to obtain eight concentrations of each test compound, ranging from 1 nM to 30 μM. […] All optical densities were measured at 490 nm using a Vmax Kinetic Microplate Reader (Molecular Devices). In most cases, the assay was performed in duplicate and the results were presented as a mean percent inhibition to the negative control+SE. The following formula was used to calculate the percent of inhibition: Inhibition (%)=(1−(ODo/OD))×100.
(§2) The compounds were tested against MS751, Z138 and 3T3 cells. The MS751 cell line is derived from a metastasis to lymph node of human cervix from a patient diagnosed with squameous cell carcinoma of the cervix. The Z138 cell line is a mature B-cell acute lymphoblastic leukemia cell line derived from a patient with chronic lumphocytic leukemia. 3T3 cells are standard fibroblast cells; they were originally isolated from Swiss mouse embryo tissue.

Assay [2] relates to 3T3 cells. Description: MTT cell proliferation assay, 3T3 cells. Particulars: Mus musculus, NIH3T3; 3T3 fibroblast cells; incubation approximately 64-72 hours. Format: cell-based, mouse. As to the method: as §1, §2
(Formazan colour is commonly taken as a measure of viable cells.)

Assay [3] has as its system MS751 cells. The assay can be described thus: MTT cell proliferation assay, MS751 cells. Format: cell-based, human. The conditions noted are these: Homo sapiens, incubation approximately 64-72 hours, read-out: MTT Assay IC50 MS 751. As to the method: as §1, §2

A word on the IC50: it is the midpoint of a concentration-inhibition curve. Consider `Nc1ccc([C@H]2C[C@@H]2C(=O)NCc2cc3cc(-c4ccc(C(=O)N5CCNCC5)cc4)cc(-c4ccc(F)cc4)c3o2)cn1` (stereo in doubt) [Compound K027, (1S,2S)-2-(6-aminopyridin-3-yl)-N—((7-(4-fluorophenyl)-5-(4-(piperazine-1-carbonyl)phenyl)benzofuran-2-yl)methyl)cyclopropanecarboxamide], for which the IC50 in assay [1] was under 1000 nM; in assay [2] it was over 10000 nM.
Turning to `Nc1ccc(C2CC2C(=O)NCCCOc2cc(-c3ccc(C(=O)N4CCC(F)(F)CC4)cc3)cc(C(F)(F)F)c2)cn1` (centres unmarked) [Compound K002, 2-(6-aminopyridin-3-yl)-N—(3-(4′-(4,4-difluoropiperidine-1-carbonyl)-5-(trifluoromethyl)biphenyl-3-yloxy)propyl)cyclopropanecarboxamide], the IC50 is under 1000 nM in assay [3], under 1000 nM in assay [1] and 1000 to 5000 nM in assay [2].
As for `Nc1ccc(C2CC2C(=O)NCCOc2ccc(-c3ccc(C(=O)N4CCC(F)(F)CC4)cc3)cc2-c2ccc(F)cc2F)cn1` (centres unmarked) [Compound K003, 2-(6-aminopyridin-3-yl)-N—(2-(3-(2,4-difluorophenyl)-4′-(4,4-difluoropiperidine-1-carbonyl)biphenyl-4-yloxy)ethyl)cyclopropanecarboxamide], the IC50 in assay [3] was under 1000 nM; in assay [1], under 1000 nM; in assay [2] it was 5000 to 10000 nM.
Take `Nc1ccc(C2CC2C(=O)NCc2cc3cc(-c4ccc(C(=O)N5CCC(F)(F)CC5)cc4F)cc(-c4ccc(F)cc4)c3o2)cn1` (centres unmarked) [Compound K004, 2-(6-aminopyridin-3-yl)-N—((5-(4-(4,4-difluoropiperidine-1-carbonyl)-2-fluorophenyl)-7-(4-fluorophenyl)benzofuran-2-yl)methyl)cyclopropanecarboxamide]: the IC50 is under 1000 nM in assay [3], under 1000 nM in assay [1] and over 10000 nM in assay [2].
As to `Nc1ccc([C@H]2C[C@@H]2C(=O)NCCCOc2cc(-c3ccc(C(=O)N4CCC(F)(F)CC4)cc3)cc(C(F)(F)F)c2)cn1` [Compound K005, (1S,2S)-2-(6-aminopyridin-3-yl)-N—(3-(4′-(4,4-difluoropiperidine-1-carbonyl)-5-(trifluoromethyl)biphenyl-3-yloxy)propyl)cyclopropanecarboxamide], the IC50 in assay [3], in assay [1] and in assay [2] was under 1000 nM each time.
With `Nc1ccc([C@@H]2C[C@H]2C(=O)NCCCOc2cc(-c3ccc(C(=O)N4CCC(F)(F)CC4)cc3)cc(C(F)(F)F)c2)cn1` [Compound K006, (1R,2R)-2-(6-aminopyridin-3-yl)-N—(3-(4′-(4,4-difluoropiperidine-1-carbonyl)-5-(trifluoromethyl)biphenyl-3-yloxy)propyl)cyclopropanecarboxamide], the IC50 in assay [3] is under 1000 nM; in assay [1], under 1000 nM; in assay [2] it was 1000 to 5000 nM.
Consider `Nc1ccc([C@H]2C[C@@H]2C(=O)NCc2cc3cc(-c4ccc(C(=O)N5CCC(F)(F)CC5)cc4)cc(C(F)(F)F)c3o2)cn1` [Compound K007, (1S,2S)-2-(6-aminopyridin-3-yl)-N—((5-(4-(4,4-difluoropiperidine-1-carbonyl)phenyl)-7-(trifluoromethyl)benzofuran-2-yl)methyl)cyclopropanecarboxamide], for which the IC50 is 1000 to 5000 nM in assay [3], 1000 to 5000 nM in assay [1] and over 10000 nM in assay [2].
With `Nc1ccc([C@@H]2C[C@H]2C(=O)NCc2cc3cc(-c4ccc(C(=O)N5CCC(F)(F)CC5)cc4)cc(C(F)(F)F)c3o2)cn1` [Compound K008, (1R,2R)-2-(6-Aminopyridin-3-yl)-N—((5-(4-(4,4-difluoropiperidine-1-carbonyl)phenyl)-7-(trifluoromethyl)benzofuran-2-yl)methyl)cyclopropanecarboxamide], the IC50 in assay [3] was over 10000 nM; in assay [1] it was 1000 to 5000 nM; in assay [2] it was over 10000 nM.
As for `Nc1ccc(C2CC2C(=O)NCc2ccc(-c3ccc(-c4ccc(C(=O)N5CCC(F)(F)CC5)cn4)cc3C(F)(F)F)o2)cn1` (centres unmarked) [Compound K009, 2-(6-aminopyridin-3-yl)-N—((5-(4-(5-(4,4-difluoropiperidine-1-carbonyl)pyridin-2-yl)-2-(trifluoromethyl)phenyl)furan-2-yl)methyl)cyclopropanecarboxamide], the IC50 is under 1000 nM in assay [3], under 1000 nM in assay [1] and 5000 to 10000 nM in assay [2].
With `Nc1ccc([C@H]2C[C@@H]2C(=O)NCc2cc3cc(-c4ccc(C(=O)N5CCC(F)(F)CC5)cc4)cc(-c4ccc(F)cc4F)c3o2)cn1` [Compound K010, (1S,2S)-2-(6-aminopyridin-3-yl)-N—((7-(2,4-difluorophenyl)-5-(4-(4,4-difluoropiperidine-1-carbonyl)phenyl)benzofuran-2-yl)methyl)cyclopropanecarboxamide], the IC50 in assay [3] is under 1000 nM; in assay [1], under 1000 nM; in assay [2], 1000 to 5000 nM.
For `Nc1ccc([C@H]2C[C@@H]2C(=O)NCc2cc3cc(-c4ccc(C(=O)N5CCC(F)(F)CC5)cc4)cc(-c4ccc(F)cc4)c3o2)cn1` [Compound K011, (1S,2S)-2-(6-aminopyridin-3-yl)-N—((5-(4-(4,4-difluoropiperidine-1-carbonyl)phenyl)-7-(4-fluorophenyl)benzofuran-2-yl)methyl)cyclopropanecarboxamide], the figures for the IC50 in assay [3], in assay [1] and in assay [2] were under 1000 nM, under 1000 nM and over 10000 nM, respectively.
On to `Nc1ccc([C@H]2C[C@@H]2C(=O)NCc2cc3cc(-c4ccc(C(=O)N5CCC(F)(F)CC5)cn4)cc(-c4ccc(F)cc4)c3o2)cn1` [Compound K012, (1S,2S)-2-(6-aminopyridin-3-yl)-N—((5-(5-(4,4-difluoropiperidine-1-carbonyl)pyridin-2-yl)-7-(4-fluorophenyl)benzofuran-2-yl)methyl)cyclopropanecarboxamide], for which the IC50 in assay [3] is under 1000 nM; in assay [1], under 1000 nM; in assay [2], 1000 to 5000 nM.
Take `Nc1ccc([C@H]2C[C@@H]2C(=O)NCc2cc3cc(-c4ccc(C(=S)N5CCC(F)(F)CC5)cc4)cc(-c4ccc(F)cc4)c3o2)cn1` [Compound K013, (1S,2S)-2-(6-aminopyridin-3-yl)-N—((5-(4-(4,4-difluoropiperidine-1-carbonothioyl)phenyl)-7-(4-fluorophenyl)benzofuran-2-yl)methyl)cyclopropanecarboxamide]: the IC50 in assay [3] was under 1000 nM; in assay [1], under 1000 nM; in assay [2], 1000 to 5000 nM.
Regarding `Nc1ccc([C@H]2C[C@@H]2C(=O)NCc2cc3cc(-c4ccc(C(=O)N5CCC(F)(F)CC5)cc4)cc(-c4cccc(F)c4)c3o2)cn1` [Compound K014, (1S,2S)-2-(6-aminopyridin-3-yl)-N—((5-(4-(4,4-difluoropiperidine-1-carbonyl)phenyl)-7-(3-fluorophenyl)benzofuran-2-yl)methyl)cyclopropanecarboxamide], the IC50 in assay [3] was under 1000 nM; in assay [1] it was under 1000 nM; in assay [2], 1000 to 5000 nM.
As for `Nc1ccc([C@H]2C[C@@H]2C(=O)NCc2cc3cc(-c4ccc(C(=O)N5CCC(F)(F)CC5)cc4)cc(-c4ccc(F)cc4)c3s2)cn1` [Compound K015, (1S,2S)-2-(6-aminopyridin-3-yl)-N—((5-(4-(4,4-difluoropiperidine-1-carbonyl)phenyl)-7-(4-fluorophenyl)benzo[b]thiophen-2-yl)methyl)cyclopropanecarboxamide], the IC50 in assay [3] is 1000 to 5000 nM; in assay [1] it was 1000 to 5000 nM; in assay [2], over 10000 nM.
Turning to `Nc1ccc([C@H]2C[C@@H]2C(=O)NCc2cc3cc(-c4ccc(C(=O)N5CC(Cl)C5)cc4)cc(-c4ccc(F)cc4)c3o2)cn1` [Compound K016, (1S,2S)-2-(6-aminopyridin-3-yl)-N—((5-(4-(3-chloroazetidine-1-carbonyl)phenyl)-7-(4-fluorophenyl)benzofuran-2-yl)methyl)cyclopropanecarboxamide], the IC50 in assay [3] was under 1000 nM; in assay [1] it was under 1000 nM; in assay [2], 1000 to 5000 nM.
Regarding `Nc1ccc([C@H]2C[C@@H]2C(=O)NCc2cc3cc(-c4ccc(C(=O)N5CCC(F)(F)C5)cc4)cc(-c4ccc(F)cc4)c3o2)cn1` [Compound K017, (1S,2S)-2-(6-aminopyridin-3-yl)-N—((5-(4-(3,3-difluoropyrrolidine-1-carbonyl)phenyl)-7-(4-fluorophenyl)benzofuran-2-yl)methyl)cyclopropanecarboxamide], the IC50 in assay [3] was under 1000 nM; in assay [1], under 1000 nM; in assay [2] it was 1000 to 5000 nM.
Regarding `Nc1ccc([C@H]2C[C@@H]2C(=O)NCc2cc3cc(-c4ccc(C(=O)N5CC(F)(F)C5)cc4)cc(-c4ccc(F)cc4)c3o2)cn1` [Compound K018, (1S,2S)-2-(6-aminopyridin-3-yl)-N—((5-(4-(3,3-difluoroazetidine-1-carbonyl)phenyl)-7-(4-fluorophenyl)benzofuran-2-yl)methyl)cyclopropanecarboxamide], the results for the IC50 in assay [3], in assay [1] and in assay [2] were under 1000 nM, under 1000 nM and 1000 to 5000 nM, respectively.
